Patent US5756491A, “Antiviral cobalt-organic compounds” (priority 1991, dated 1998)

Columns and labels:
RE strain HSV-1 = test: HSV-1 recovery from tear film, cornea and trigeminal ganglia of treated rabbits; assay type: in vivo, NZW rabbit
Source text: The specified number of NZW rabbits (1.5-2.0 kg) were used. Animals were received at least two days prior to inoculation to allow them to accommodate to the conditions in the vivarium facility. This conditioning of the animals prior to inoculation minimizes animal variability. After the accommodation, the animals received a slit-lamp examination to exclude any animals with pre-existing anterior segment ocular defects. Animals were bi-laterally inoculated by intrastromal injection of 10^5 PFU RE strain HSV-1. The animals were then replaced individually into cages.
[…] This was carried out by obtaining tear film by swabbing the lower and upper conjunctival sacs and retaining the swab in the nasal fornix for 10 seconds. The swabs were eluted individually in HBSS. 50 μl aliquots of the virus-HBSS eluate were absorbed under confluent HFF cell monolayers for 5 minutes. The monolayers were hydrated with MEM, incubated at 37° C. and observed daily for 1 to 2 weeks to detect developing cytopathology consistent with HSV infection (HSV CPE).
(§1) On day 10 PI, the animals were sacrificed, the corneal epithelium was scraped from the eyes and epithelial and corneal stromal cultures were preformed on HFF cell monolayers. The separation of epithelial virus from deeper stromal virus infection allows for analysis of HSV in these distinct corneal layers. Corneal epithelial and stromal co-cultures were evaluated daily by inverted light microscopy.
At sacrifice, trigeminal ganglia were removed, washed in HBSS, minced and floated over duplicate HFF cell monolayers. The cell co-cultures were monitored by inverted light microscopy for 2 weeks. Negative cultures were blind passaged twice at 7 day intervals. Detection of HSV CPE in the whole-cell co-cultures was scored either positive or negative. HSV recovery from inventive compound-treated, TFT-treated and placebo-treated trigeminal ganglia was compared and differences in recovery rates analyzed.
as §1, with “7” for “10”, “performed” for “preformed”

[1] = tested on: human foreskin fibroblast (HFF) cell monolayers; test: Toxicity effects controls: sham-inoculated compound-treated HFF monolayers; assay type: cell-based; note: key: +: toxic; -: no toxicity; ±: mild toxicity; T: toxicity effects interfered with CPE rating
Source text: With sufficient stirring, all the compounds completely dissolved.
In the tables, the symbols have the meaning indicated: […]

HSV-1 McKrae Strain = test: Direct virucidal efficacy against HSV-1 on HFF monolayers; assay type: cell-based
HFF cells = test: Cell proliferation assay; assay type: cell-based, human; details: rapidly growing cells
Protocol: Twenty-four hours prior to assay, HFF cells are seeded in 6-well plates at a concentration of 2.5×10^4 cells per well in MEM containing 10% FBS. On the day of the assay, drugs are diluted serially in MEM containing 10% FBS at increments of 1:5 covering a range from 100 μg/ml to 0.03 μg/ml. […] The media from the wells is then aspirated and 2 ml of each drug concentration is then added to each well. The cells are then incubated in a Co2 incubator at 37° C. for 72 h. At the end of this time, the media-drug solution is removed and the cells washed. […] The cell-media mixture is then pipetted up and down vigorously to break up the cell suspension and 0.2 ml of the mixture is added to 9.8 ml of Isoton III and counted using a Coulter Counter. Each sample is counted three times with three replicate wells per sample.

With `CC1=CC(C)=[N+]2CC[N+]3=C(C)C=C(C)[O][Co-3]23([NH3+])([NH3+])[O]1.[Cl-]` [Compound 23, reference compound] the “HSV-1 recovery from corneal epithelial cultures vs other therapy groups” value (RE strain HSV-1; Example 3) was “significantly reduced”, the “HSV-1 recovery, corneal epithelium (C.E.)” value (RE strain HSV-1; Example 3 (Table 22)) was 20% and the “HSV-1 recovery, corneal stroma (C.S.)” value (RE strain HSV-1; Example 3 (Table 22)) was 50%. The “HSV-1 recovery, trigeminal ganglia (T.G.)” value (RE strain HSV-1; Example 3 (Table 22)) was 50%, the “HSV-1 recovery, tear film (positive samples of total)” value (“HSV-1 recovery, tear film” for short) (RE strain HSV-1; Example 3 (Table 22), day 3 PI) was 100% and the “HSV-1 recovery, tear film” value (RE strain HSV-1; Example 3 (Table 22), day 5 PI) was 100%. For the same compound, the “HSV-1 recovery, tear film” value (RE strain HSV-1; Example 3 (Table 22), day 7 PI) was 80%, the “HSV-1 recovery, tear film” value (RE strain HSV-1; Example 3 (Table 22), day 9 PI) was 0% and the “recovery of HSV-1 in tear film” value (RE strain HSV-1; Example 4) was “reduced the recovery of HSV-1 in tear film”. For the same compound, the “HSV-1 recovery, corneal stroma” value (RE strain HSV-1; Example 5 (Table 23)) was 80%, the “HSV-1 recovery (positive cultures per total)” value (RE strain HSV-1; Example 5 (Table 23), column 1) was 0% and the “HSV-1 recovery (positive cultures per total)” value (RE strain HSV-1; Example 5 (Table 23), column 3) was 100%. The “HSV-1 recovery (positive cultures per total)” value (RE strain HSV-1; Example 5 (Table 23), column 5) was 90%, the “HSV-1 recovery (positive cultures per total)” value (RE strain HSV-1; Example 5 (Table 23), column 7) was 80% and the toxicity effects ([1]; Experiment 1 (Table 1), 24 h PI, 0.001 mg/ml) was “-”. The toxicity effects ([1]; Experiment 1 (Table 1), 24 h PI, 0.01 mg/ml) was “-”, the toxicity effects ([1]; Experiment 1 (Table 1), 24 h PI, 0.1 mg/ml) was “-” and the toxicity effects ([1]; Experiment 1 (Table 1), 24 h PI, 1 mg/ml) was “-”. The toxicity effects ([1]; Experiment 1 (Table 1), 48 h PI, 0.001 mg/ml) was “-”, the toxicity effects ([1]; Experiment 1 (Table 1), 48 h PI, 0.01 mg/ml) was “-” and the toxicity effects ([1]; Experiment 1 (Table 1), 48 h PI, 0.1 mg/ml) was “-”. The toxicity effects ([1]; Experiment 1 (Table 1), 48 h PI, 10 mg/ml) was “+”, the toxicity effects ([1]; Experiment 3 (Table 7), 24 h PI, 0.001 mg/ml) was “-” and the toxicity effects ([1]; Experiment 3 (Table 7), 24 h PI, 0.01 mg/ml) was “-”. The toxicity effects ([1]; Experiment 3 (Table 7), 24 h PI, 0.1 mg/ml) was “-”, the toxicity effects ([1]; Experiment 3 (Table 7), 48 h PI, 0.001 mg/ml) was “-” and the toxicity effects ([1]; Experiment 3 (Table 7), 48 h PI, 0.01 mg/ml) was “-”. For the same compound, the toxicity effects ([1]; Experiment 3 (Table 7), 48 h PI, 0.1 mg/ml) was “-”, the toxicity effects ([1]; Experiment 6 (Table 15), 48 h, 0.001 mg/ml) was “-” and the toxicity effects ([1]; Experiment 6 (Table 15), 48 h, 0.01 mg/ml) was “-”. For the same compound, the toxicity effects ([1]; Experiment 6 (Table 15), 48 h, 0.1 mg/ml) was “-”, the toxicity effects ([1]; Experiment 6 (Table 15), 48 h, 0.5 mg/ml) was “-” and the toxicity effects ([1]; Experiment 6 (Table 15), 48 h, 1 mg/ml) was “-”. The “virucidal efficacy (HSV-1 titer)” value (HSV-1 McKrae Strain; Experiment 1 (Table 2), 24 h PI, 0.001 mg/ml) was 10^5 PFU/ml, the “virucidal efficacy (HSV-1 titer)” value (HSV-1 McKrae Strain; Experiment 1 (Table 2), 24 h PI, 0.1 mg/ml) was 10^1 PFU/ml and the “virucidal efficacy (HSV-1 titer)” value (HSV-1 McKrae Strain; Experiment 1 (Table 2), 24 h PI, 1 mg/ml) was 0 PFU/ml. The “virucidal efficacy (HSV-1 titer)” value (HSV-1 McKrae Strain; Experiment 1 (Table 2), 24 h PI, 10 mg/ml) was 0 PFU/ml, the “virucidal efficacy (HSV-1 titer)” value (HSV-1 McKrae Strain; Experiment 1 (Table 2), 24 h PI, .01 mg/ml) was 10^3 PFU/ml and the “virucidal efficacy (HSV-1 titer)” value (HSV-1 McKrae Strain; Experiment 1 (Table 2), 48 h PI, 0.1 mg/ml) was 10^5 PFU/ml. The “virucidal efficacy (HSV-1 titer)” value (HSV-1 McKrae Strain; Experiment 1 (Table 2), 48 h PI, 1 mg/ml) was 10^5 PFU/ml, the “virucidal efficacy (HSV-1 titer)” value (HSV-1 McKrae Strain; Experiment 1 (Table 2), 48 h PI, 10 mg/ml) was “O/T” and the “effective virucidal concentration IC90” value (HSV-1 McKrae Strain; Experiment 1 (Table 3), HSV-1) was 100 mg/L. The “virucidal efficacy (HSV-1 titer)” value (HSV-1 McKrae Strain; Experiment 2 (Table 5), 24 h PI, 0.001 mg/ml) was 10^3 PFU/ml, the “virucidal efficacy (HSV-1 titer)” value (HSV-1 McKrae Strain; Experiment 2 (Table 5), 24 h PI, 0.01 mg/ml) was 10^2 PFU/ml and the “virucidal efficacy (HSV-1 titer)” value (HSV-1 McKrae Strain; Experiment 2 (Table 5), 24 h PI, 0.1 mg/ml) was 10^1 PFU/ml. For the same compound, the “virucidal efficacy (HSV-1 titer)” value (HSV-1 McKrae Strain; Experiment 2 (Table 5), 24 h PI, 1 mg/ml) was 0 PFU/ml, the “virucidal efficacy (HSV-1 titer)” value (HSV-1 McKrae Strain; Experiment 2 (Table 5), 24 h PI, 10 mg/ml) was 0 PFU/ml and the “virucidal efficacy (HSV-1 titer)” value (HSV-1 McKrae Strain; Experiment 2 (Table 5), 48 h PI, 0.1 mg/ml) was 10^5 PFU/ml. For the same compound, the “virucidal efficacy (HSV-1 titer)” value (HSV-1 McKrae Strain; Experiment 2 (Table 5), 48 h PI, 1 mg/ml) was 0 PFU/ml, the “virucidal efficacy (HSV-1 titer)” value (HSV-1 McKrae Strain; Experiment 2 (Table 5), 48 h PI, 10 mg/ml) was “O/T” and the “virucidal efficacy (HSV-1 titer)” value (HSV-1 McKrae Strain; Experiment 3 (Table 8), 24 h PI, 0.001 mg/ml) was 10^5 PFU/ml. The “virucidal efficacy (HSV-1 titer)” value (HSV-1 McKrae Strain; Experiment 3 (Table 8), 24 h PI, 0.01 mg/ml) was 10^3 PFU/ml, the “virucidal efficacy (HSV-1 titer)” value (HSV-1 McKrae Strain; Experiment 3 (Table 8), 24 h PI, 0.1 mg/ml) was 10^1 PFU/ml and the “virucidal efficacy (HSV-1 titer)” value (HSV-1 McKrae Strain; Experiment 3 (Table 8), 24 h PI, 1 mg/ml) was 0 PFU/ml. For the same compound, the “virucidal efficacy (HSV-1 titer)” value (HSV-1 McKrae Strain; Experiment 3 (Table 8), 48 h PI, 0.1 mg/ml) was 10^5 PFU/ml, the “virucidal efficacy (HSV-1 titer)” value (HSV-1 McKrae Strain; Experiment 3 (Table 8), 48 h PI, 1 mg/ml) was 10^5 PFU/ml and the “virucidal efficacy (HSV-1 titer)” value (HSV-1 McKrae Strain; Experiment 6 (Table 16), 24 h PI, 0.1 mg/ml) was 10^0-1 PFU/ml. The “virucidal efficacy (HSV-1 titer)” value (HSV-1 McKrae Strain; Experiment 6 (Table 16), 24 h PI, 0.5 mg/ml) was 0 PFU/ml, the “virucidal efficacy (HSV-1 titer)” value (HSV-1 McKrae Strain; Experiment 6 (Table 16), 24 h PI, 1 mg/ml) was 0 PFU/ml and the “virucidal efficacy (HSV-1 titer)” value (HSV-1 McKrae Strain; Experiment 6 (Table 16), 24 h PI, 2 mg/ml) was 0 PFU/ml. The “virucidal efficacy (HSV-1 titer)” value (HSV-1 McKrae Strain; Experiment 6 (Table 16), 24 h PI, 5 mg/ml) was 0 PFU/ml and the “toxicity IC50, cell proliferation” value (HFF cells) was 6.2 MCG/ML.
